# Test results from publication PMC12420824, “Discovery of a selective alpha-kinase 1 inhibitor for the rare genetic disease ROSAH syndrome” (Nature Communications, 2025).
# Tests used:
# Details in all cases: read-out: % Enzyme Activity (relative to DMSO control), 10 uM
# [1] = target: NEK2 (Homo sapiens, UniProt P51955); assay: HotSpot kinase assay
# Description: (§1) Additionally, a 10-dose dilution series of staurosporine and other enzyme-appropriate compounds were included as positive control inhibitors.
# [2] = target: TSSK3/STK22C (Homo sapiens, UniProt Q96PN8); assay: HotSpot kinase assay
# Description: as §1
# [3] = target: KSR2 (Homo sapiens, UniProt Q6VAB6); assay: HotSpot kinase assay
# Description: as §1
# [4] = target: PLK3 (Homo sapiens, UniProt Q9H4B4); assay: HotSpot kinase assay
# [5] = target: CDK14/cyclin Y (PFTK1) (Homo sapiens, UniProt O94921); assay: HotSpot kinase assay
# Description: as §1
# [6] = target: STK16 (Homo sapiens, UniProt O75716); assay: biochemical
# Sequence of STK16 (O75716 whole entry): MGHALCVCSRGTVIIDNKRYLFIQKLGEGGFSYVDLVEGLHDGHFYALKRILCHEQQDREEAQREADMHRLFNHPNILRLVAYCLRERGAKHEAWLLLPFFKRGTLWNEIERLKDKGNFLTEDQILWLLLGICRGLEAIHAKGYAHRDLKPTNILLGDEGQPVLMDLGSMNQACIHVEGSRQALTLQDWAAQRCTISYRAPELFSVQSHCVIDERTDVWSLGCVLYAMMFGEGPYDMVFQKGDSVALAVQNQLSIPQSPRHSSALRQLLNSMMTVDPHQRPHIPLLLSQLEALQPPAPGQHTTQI
# Description: as §1
# [7] = target: ERN1/IRE1 (Homo sapiens, UniProt O75460); assay: HotSpot kinase assay
# Description: as §1
# [8] = target: TESK1 (Homo sapiens, UniProt Q15569); assay: HotSpot kinase assay
# Description: as §1
# [9] = target: EIF2AK1 (Homo sapiens, UniProt Q9BQI3); assay: HotSpot kinase assay
# Sequence of EIF2AK1 (Q9BQI3 whole entry): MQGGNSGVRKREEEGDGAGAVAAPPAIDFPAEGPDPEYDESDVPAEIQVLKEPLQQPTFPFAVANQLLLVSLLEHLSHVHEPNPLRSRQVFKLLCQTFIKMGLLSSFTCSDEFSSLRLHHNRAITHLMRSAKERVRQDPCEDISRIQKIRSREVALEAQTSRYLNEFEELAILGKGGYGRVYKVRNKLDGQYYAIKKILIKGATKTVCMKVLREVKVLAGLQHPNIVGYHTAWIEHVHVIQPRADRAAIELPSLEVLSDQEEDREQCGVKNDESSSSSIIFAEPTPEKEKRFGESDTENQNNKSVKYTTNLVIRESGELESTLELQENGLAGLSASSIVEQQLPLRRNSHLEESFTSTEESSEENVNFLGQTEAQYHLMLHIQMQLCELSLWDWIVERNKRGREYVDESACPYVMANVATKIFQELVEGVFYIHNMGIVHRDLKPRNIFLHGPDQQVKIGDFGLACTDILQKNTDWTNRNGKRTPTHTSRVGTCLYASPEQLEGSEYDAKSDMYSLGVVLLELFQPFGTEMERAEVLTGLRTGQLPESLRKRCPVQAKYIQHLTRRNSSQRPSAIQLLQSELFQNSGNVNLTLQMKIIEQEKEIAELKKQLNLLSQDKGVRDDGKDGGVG
# Description: as §1
# [10] = target: ULK3 (Homo sapiens, UniProt Q6PHR2); assay: HotSpot kinase assay
# [11] = target: PIM2 (Homo sapiens, UniProt Q9P1W9); assay: HotSpot kinase assay
# Description: as §1
# [12] = target: ALK1/ACVRL1 (Homo sapiens, UniProt P37023); assay: HotSpot kinase assay
# Description: as §1
# [13] = target: NLK (Homo sapiens, UniProt Q9UBE8); assay: HotSpot kinase assay
# Description: as §1
# [14] = target: KDR/VEGFR2 (Homo sapiens, UniProt P35968); assay: HotSpot kinase assay
# Sequence of KDR/VEGFR2 (P35968 20-1356): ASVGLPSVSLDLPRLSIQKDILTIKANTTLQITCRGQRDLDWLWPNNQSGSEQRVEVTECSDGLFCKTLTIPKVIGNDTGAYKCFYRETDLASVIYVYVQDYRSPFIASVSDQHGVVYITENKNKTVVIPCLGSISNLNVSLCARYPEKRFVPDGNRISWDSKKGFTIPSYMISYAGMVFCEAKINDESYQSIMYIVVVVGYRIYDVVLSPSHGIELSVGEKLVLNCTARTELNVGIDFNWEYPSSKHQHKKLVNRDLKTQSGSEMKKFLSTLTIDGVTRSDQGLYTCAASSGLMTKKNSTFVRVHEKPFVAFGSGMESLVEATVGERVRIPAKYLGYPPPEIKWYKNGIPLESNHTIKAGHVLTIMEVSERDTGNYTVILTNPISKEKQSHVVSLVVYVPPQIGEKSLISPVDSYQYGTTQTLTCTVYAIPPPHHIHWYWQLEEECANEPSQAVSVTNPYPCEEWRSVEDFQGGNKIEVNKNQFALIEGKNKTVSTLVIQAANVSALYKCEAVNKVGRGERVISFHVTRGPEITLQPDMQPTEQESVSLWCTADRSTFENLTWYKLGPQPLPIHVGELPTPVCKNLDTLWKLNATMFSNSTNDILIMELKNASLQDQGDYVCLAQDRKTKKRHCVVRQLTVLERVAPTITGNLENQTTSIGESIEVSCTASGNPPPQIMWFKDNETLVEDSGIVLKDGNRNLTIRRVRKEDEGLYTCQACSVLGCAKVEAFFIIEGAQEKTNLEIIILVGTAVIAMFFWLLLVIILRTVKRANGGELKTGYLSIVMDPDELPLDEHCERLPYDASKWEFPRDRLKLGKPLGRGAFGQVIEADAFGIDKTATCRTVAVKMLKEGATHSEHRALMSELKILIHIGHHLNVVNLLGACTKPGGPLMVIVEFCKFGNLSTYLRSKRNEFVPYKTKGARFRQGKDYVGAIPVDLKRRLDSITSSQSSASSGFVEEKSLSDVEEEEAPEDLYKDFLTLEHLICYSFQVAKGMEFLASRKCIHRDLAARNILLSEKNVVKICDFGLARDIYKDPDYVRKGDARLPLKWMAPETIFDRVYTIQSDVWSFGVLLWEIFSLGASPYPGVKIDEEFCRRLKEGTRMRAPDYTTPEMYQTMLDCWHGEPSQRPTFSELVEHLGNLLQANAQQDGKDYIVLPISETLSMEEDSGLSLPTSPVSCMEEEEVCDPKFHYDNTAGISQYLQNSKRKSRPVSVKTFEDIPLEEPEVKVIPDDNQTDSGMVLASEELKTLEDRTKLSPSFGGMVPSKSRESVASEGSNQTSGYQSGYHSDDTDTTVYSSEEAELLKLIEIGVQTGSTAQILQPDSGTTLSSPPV
# [15] = target: EPHA7 (Homo sapiens, UniProt Q15375); assay: HotSpot kinase assay
# Description: as §1
# [16] = target: MAK (Homo sapiens, UniProt P20794); assay: HotSpot kinase assay
# Description: as §1
# [17] = target: Haspin (Homo sapiens, UniProt Q8TF76); assay: HotSpot kinase assay
# [18] = target: LYN B (Homo sapiens, UniProt P07948); assay: HotSpot kinase assay
# [19] = target: TAK1 (Homo sapiens, UniProt O43318); assay: HotSpot kinase assay
# Description: as §1
# [20] = target: IGF1R (Homo sapiens, UniProt P08069); assay: HotSpot kinase assay
# [21] = target: RSK4 (Homo sapiens, UniProt Q9UK32); assay: HotSpot kinase assay
# Description: as §1
# [22] = target: MKK7 (Homo sapiens, UniProt O14733); assay: HotSpot kinase assay
# [23] = target: MUSK (Homo sapiens, UniProt O15146); assay: HotSpot kinase assay
# Description: as §1
# [24] = target: IRAK4 (Homo sapiens, UniProt Q9NWZ3); assay: HotSpot kinase assay
# Description: as §1
# [25] = target: CDK6/cyclin D3 (Homo sapiens, UniProt Q00534); assay: HotSpot kinase assay
# Description: as §1
# [26] = target: c-MER (Homo sapiens, UniProt Q12866); assay: HotSpot kinase assay
# Description: as §1
# [27] = target: IRAK1 (Homo sapiens, UniProt P51617); assay: HotSpot kinase assay
# Sequence of IRAK1 (P51617 whole entry): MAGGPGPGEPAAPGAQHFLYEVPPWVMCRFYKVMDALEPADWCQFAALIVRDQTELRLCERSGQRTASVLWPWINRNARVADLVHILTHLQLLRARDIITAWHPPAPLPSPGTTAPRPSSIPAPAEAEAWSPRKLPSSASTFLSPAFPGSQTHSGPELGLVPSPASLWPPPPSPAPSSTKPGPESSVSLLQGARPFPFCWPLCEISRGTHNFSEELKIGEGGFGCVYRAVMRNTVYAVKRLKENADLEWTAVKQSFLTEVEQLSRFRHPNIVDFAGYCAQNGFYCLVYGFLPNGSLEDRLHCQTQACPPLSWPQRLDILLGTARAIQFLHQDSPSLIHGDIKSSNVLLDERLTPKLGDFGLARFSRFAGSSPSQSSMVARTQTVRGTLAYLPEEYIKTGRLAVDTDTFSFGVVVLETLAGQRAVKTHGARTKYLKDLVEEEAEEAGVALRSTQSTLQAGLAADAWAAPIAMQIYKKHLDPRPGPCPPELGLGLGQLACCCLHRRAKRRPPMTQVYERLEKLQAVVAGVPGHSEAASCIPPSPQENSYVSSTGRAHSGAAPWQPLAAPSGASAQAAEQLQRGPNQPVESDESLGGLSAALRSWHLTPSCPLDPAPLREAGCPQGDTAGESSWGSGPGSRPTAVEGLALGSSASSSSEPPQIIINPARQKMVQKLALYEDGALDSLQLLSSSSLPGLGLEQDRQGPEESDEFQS
# Description: as §1
# [28] = target: GRK4 (Homo sapiens, UniProt P32298); assay: HotSpot kinase assay
# Description: as §1
# [29] = target: EPHA3 (Homo sapiens, UniProt P29320); assay: HotSpot kinase assay
# Description: as §1
# [30] = target: LCK2/ICK (Homo sapiens, UniProt Q9UPZ9); assay: HotSpot kinase assay
# Description: as §1
# [31] = target: TSSK2 (Homo sapiens, UniProt Q96PF2); assay: HotSpot kinase assay
# Description: as §1
# [32] = target: MNK1 (Homo sapiens, UniProt Q9BUB5); assay: HotSpot kinase assay
# [33] = target: MLK1/MAP3K9 (Homo sapiens, UniProt P80192); assay: HotSpot kinase assay
# Sequence of MLK1/MAP3K9 (P80192 whole entry): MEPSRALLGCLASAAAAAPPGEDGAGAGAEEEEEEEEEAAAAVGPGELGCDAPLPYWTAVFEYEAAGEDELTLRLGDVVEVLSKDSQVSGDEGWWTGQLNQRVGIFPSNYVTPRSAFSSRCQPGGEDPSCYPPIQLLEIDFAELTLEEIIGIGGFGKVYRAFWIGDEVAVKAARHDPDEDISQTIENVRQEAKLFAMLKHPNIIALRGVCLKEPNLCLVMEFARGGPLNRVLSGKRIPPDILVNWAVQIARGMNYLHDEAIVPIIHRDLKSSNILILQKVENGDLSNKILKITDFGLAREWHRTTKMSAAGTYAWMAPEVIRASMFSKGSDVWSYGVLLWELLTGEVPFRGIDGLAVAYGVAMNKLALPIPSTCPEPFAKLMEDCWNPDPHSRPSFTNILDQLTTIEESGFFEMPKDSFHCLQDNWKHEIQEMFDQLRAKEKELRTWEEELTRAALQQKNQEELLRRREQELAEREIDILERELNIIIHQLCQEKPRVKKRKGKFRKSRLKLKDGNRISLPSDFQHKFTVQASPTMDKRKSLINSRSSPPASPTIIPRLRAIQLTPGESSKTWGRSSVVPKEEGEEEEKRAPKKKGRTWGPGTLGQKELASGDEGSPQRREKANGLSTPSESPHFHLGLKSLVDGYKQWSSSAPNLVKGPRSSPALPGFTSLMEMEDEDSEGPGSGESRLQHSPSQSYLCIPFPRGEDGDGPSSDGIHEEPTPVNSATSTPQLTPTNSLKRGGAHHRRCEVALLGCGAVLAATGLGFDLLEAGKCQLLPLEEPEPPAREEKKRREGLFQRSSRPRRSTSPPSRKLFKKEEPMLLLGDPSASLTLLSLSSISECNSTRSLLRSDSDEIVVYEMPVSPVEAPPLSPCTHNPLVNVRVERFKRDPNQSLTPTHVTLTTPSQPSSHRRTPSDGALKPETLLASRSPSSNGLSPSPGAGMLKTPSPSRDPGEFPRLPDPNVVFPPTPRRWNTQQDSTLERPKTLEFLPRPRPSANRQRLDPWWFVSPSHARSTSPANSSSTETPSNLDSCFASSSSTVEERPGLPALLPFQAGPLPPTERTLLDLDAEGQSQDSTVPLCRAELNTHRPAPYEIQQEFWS
# Description: as §1
# [34] = target: TESK2 (Homo sapiens, UniProt Q96S53); assay: HotSpot kinase assay
# Sequence of TESK2 (Q96S53 whole entry): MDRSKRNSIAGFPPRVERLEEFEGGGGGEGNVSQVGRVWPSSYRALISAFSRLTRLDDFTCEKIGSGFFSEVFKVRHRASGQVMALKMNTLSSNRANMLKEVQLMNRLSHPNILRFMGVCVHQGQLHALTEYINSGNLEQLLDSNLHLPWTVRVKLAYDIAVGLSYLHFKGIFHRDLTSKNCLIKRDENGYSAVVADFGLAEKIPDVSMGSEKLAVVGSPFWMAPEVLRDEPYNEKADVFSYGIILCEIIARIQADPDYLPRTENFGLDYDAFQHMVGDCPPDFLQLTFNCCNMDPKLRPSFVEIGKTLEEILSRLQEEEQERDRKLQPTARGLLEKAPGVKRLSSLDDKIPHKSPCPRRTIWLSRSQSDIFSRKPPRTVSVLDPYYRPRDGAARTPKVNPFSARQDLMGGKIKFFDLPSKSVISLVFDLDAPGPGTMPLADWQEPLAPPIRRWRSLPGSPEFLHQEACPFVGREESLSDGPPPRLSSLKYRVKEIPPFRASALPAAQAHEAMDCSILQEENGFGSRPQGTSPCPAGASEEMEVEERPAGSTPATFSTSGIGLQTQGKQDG
# [35] = target: AMPK (A2/B1/G3) (Homo sapiens, UniProt P54646); assay: HotSpot kinase assay
# Description: as §1
# [36] = target: NEK1 (Homo sapiens, UniProt Q96PY6); assay: HotSpot kinase assay
# Description: as §1
# [37] = target: CK1g2 (Homo sapiens, UniProt P78368); assay: HotSpot kinase assay
# Sequence of CK1g2 (P78368 whole entry): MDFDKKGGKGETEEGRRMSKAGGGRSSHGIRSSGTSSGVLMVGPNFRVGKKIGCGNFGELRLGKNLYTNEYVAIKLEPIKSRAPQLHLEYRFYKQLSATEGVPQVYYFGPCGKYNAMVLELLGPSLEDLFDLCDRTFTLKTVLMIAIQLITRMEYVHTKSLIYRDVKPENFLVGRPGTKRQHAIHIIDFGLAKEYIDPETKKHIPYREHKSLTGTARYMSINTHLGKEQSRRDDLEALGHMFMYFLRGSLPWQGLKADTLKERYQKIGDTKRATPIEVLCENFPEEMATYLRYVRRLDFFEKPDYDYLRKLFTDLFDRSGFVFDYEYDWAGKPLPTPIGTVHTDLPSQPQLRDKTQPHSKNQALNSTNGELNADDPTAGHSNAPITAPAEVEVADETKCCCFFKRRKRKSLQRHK
# [38] = target: CAMK2b (Homo sapiens, UniProt Q13554); assay: HotSpot kinase assay
# Description: as §1
# [39] = target: FRK/PTK5 (Homo sapiens, UniProt P42685); assay: HotSpot kinase assay
# Description: as §1
# [40] = target: DDR1 (Homo sapiens, UniProt Q08345); assay: HotSpot kinase assay
# Description: as §1
compound,measurement,setting,value
C#C[C@@](C)(c1ccc(Cl)cc1)c1csc(NC(=O)c2c(F)cc(N3CCNCC3)cc2F)n1 (stereo in doubt) [DF-003],remaining activity at 10 µM,[1],68.6%
same,remaining activity at 10 µM,[2],53.7%
same,remaining activity at 10 µM,[3],79.5%
same,remaining activity at 10 µM,[4],102%
same,remaining activity at 10 µM,[5],98.8%
same,remaining activity at 10 µM,[6],109%
same,remaining activity at 10 µM,[7],93.8%
same,remaining activity at 10 µM,[8],82.9%
same,remaining activity at 10 µM,[9],91.9%
same,remaining activity at 10 µM,[10],114%
same,remaining activity at 10 µM,[11],87.6%
same,remaining activity at 10 µM,[12],89.1%
same,remaining activity at 10 µM,[13],99.5%
same,remaining activity at 10 µM,[14],76%
same,remaining activity at 10 µM,[15],105%
same,remaining activity at 10 µM,[16],100%
same,remaining activity at 10 µM,[17],85.7%
same,remaining activity at 10 µM,[18],143%
same,remaining activity at 10 µM,[19],102%
same,remaining activity at 10 µM,[20],94.6%
same,remaining activity at 10 µM,[21],88.3%
same,remaining activity at 10 µM,[22],103%
same,remaining activity at 10 µM,[23],105%
same,remaining activity at 10 µM,[24],95.5%
same,remaining activity at 10 µM,[25],79.4%
same,remaining activity at 10 µM,[26],89.5%
same,remaining activity at 10 µM,[27],88%
same,remaining activity at 10 µM,[28],108%
same,remaining activity at 10 µM,[29],117%
same,remaining activity at 10 µM,[30],86.9%
same,remaining activity at 10 µM,[31],101%
same,remaining activity at 10 µM,[32],85.4%
same,remaining activity at 10 µM,[33],79.7%
same,remaining activity at 10 µM,[34],81.8%
same,remaining activity at 10 µM,[35],87.3%
same,remaining activity at 10 µM,[36],106%
same,remaining activity at 10 µM,[37],121%
same,remaining activity at 10 µM,[38],30.3%
same,remaining activity at 10 µM,[39],101%
same,remaining activity at 10 µM,[40],85.1%
